From patent US10947273B2, “Peptides of use in the preventive and curative treatment of alopecia” (Institut Europeen de Biologie Cellulaire, priority 2015, dated 2021) come the findings set out here.

The star is where a group is joined. Palmitoyl = CCCCCCCCCCCCCCCC(=O)*; Chol = cholesterol residue

Holding throughout (assay type): cell-based, human
For experiment [1], the system named is HGF. Put plainly: HGF secretion by HFDPC (ELISA/BioPlex). Particulars: 48h. On the procedure:
(§1) NHDF, HFDPC, HHFK and NHEM cells were treated with the peptides studied for 48h. At the end of the treatment, cell supernatants were collected and stored at −80° C. until analysis. The factors of interest secreted into the supernatant were assayed by ELISA® (R&D) or BioPlex® (BioRad®).
(§2) The results are expressed as percent increase in the concentration of the factor present in the supernatant relative to the untreated control. The intensity of the effect varies as a function of the concentration of the peptide studied and of the cell type treated.
(An ELISA detects its analyte on a solid surface through an enzyme-linked reagent.)

Experiment [2] deals with HGF. The experiment is described as follows: HGF secretion by NHDF (ELISA/BioPlex). Particulars: 48h. On the procedure: as §1, §2
The subject of the next experiment is KGF. Put plainly: qPCR (TLDA) KGF gene expression in HFDPC. Details: dose or concentration left out as unconfirmed. Particulars: peptide, 24 hours, relative to untreated controls. Here is the method: (§3) RNA was extracted and purified from cell pellets using the RNA XS Kit (Macherey-Nagel). RNA quantification was carried out with a NanoDrop device and sample quality was verified on a Bioanalyzer with RNA 6000 Nano chips (Agilent). cDNA was synthesized from 300 ng of RNA using the High-Capacity cDNA Reverse Transcription Kit (LifeTech). Quality-control qPCR assays of the cDNA were carried out in microplates on the reference gene, GAPDH, and the SIRT1 gene.
(§4) Final qPCR experiments were carried out in a 1 μl volume on microfluidic cards (TaqMan Low Density Arrays, LifeTech) and the ABI 7900HT qPCR device. Amplification reactions were performed in duplicate using 1 to 2 ng of cDNA per qPCR reaction and TaqMan Universal Master Mix II (LifeTech).
(§5) Ct values were obtained using the RQ Manager software. For analyses of qPCR results, Ct values were limited to 35 cycles and the duplicate assays are averaged. The GeneXPro software was used for the studies of stability and of selection of the best reference genes. Expression variations are calculated by the relative quantification method and are expressed as percent increase in expression of the gene of interest relative to the untreated controls.

Another experiment deals with SCF. The experiment is described as follows: SCF secretion by NHDF (ELISA/BioPlex). Particulars: 48h. Here is the method: as §1, §2
Experiment [3] deals with HGF. Put plainly: qPCR (TLDA) HGF gene expression in HFDPC. Further details: dose or concentration left out as unconfirmed. Particulars: peptide, 24 hours, relative to untreated controls. On the procedure:
as §3, §4, §5

The subject of another experiment is NGF. Put plainly: NGF secretion by NHDF (ELISA/BioPlex). Particulars: 48h. On the procedure:
as §1, §2

A further experiment relates to PDGF. Put plainly: PDGF secretion by HFDPC (ELISA/BioPlex). Particulars: 10^−7 M, 48h. Here is the method: as §1, §2
A further experiment has as its system VEGF. The experiment is described as follows: VEGF secretion by NHDF (ELISA/BioPlex). Particulars: 10^−7 M, 48h. Here is the method:
as §1, §2

In the case of H-Arg-Pro-Ala-Lys-OH (H-RPAK-OH) [(8)], the figures for the “HGF secretion, percent increase relative to untreated control” value in the experiment with HGF [1] (10^−5 M), in the experiment with HGF [1] (10^−7 M) and with HGF [2] (10^−5 M) were “HGF 26%”, “HGF 129%” and “HGF 8%”, respectively. Moreover, in the experiment on KGF, the “% stimulation KGF gene expression” value was determined as 14%.

For “Chol-Ala-Arg-Pro-Ala-Lys-NH2 (Chol-ARPAK-NH2) [(7)]”, the “SCF secretion, percent increase relative to untreated control” value in the experiment on SCF (10^−7 M) is given as “SCF 10%”. Further, in the experiment on HGF [3], the “% stimulation HGF gene expression” value worked out at 49%. Also, in the experiment with NGF (10^−7 M), the “NGF secretion, percent increase relative to untreated control” value is reported as “NGF 11%”. The “HGF secretion, percent increase relative to untreated control” value in the experiment with HGF [2] (10^−7 M) is “HGF 104%”.

Regarding “Palm-Ala-Arg-Pro-Ala-Ala-NH2 (Palmitoyl-ARPAA-NH2; SMILES CCCCCCCCCCCCCCCC(=O)N[C@@H](C)C(=O)N[C@@H](CCCNC(=N)N)C(=O)N1CCC[C@H]1C(=O)N[C@@H](C)C(=O)N[C@@H](C)C(N)=O) [(4)]”, the “SCF secretion, percent increase relative to untreated control” value with SCF (10^−7 M) is given as “SCF 6%”; in the experiment with SCF (10^−9 M), “SCF 8%”. Also, in the experiment with PDGF, the “PDGF secretion, percent increase relative to untreated control” value is on record as “PDGF 8%”. Besides, the “NGF secretion, percent increase relative to untreated control” value is on record as “NGF 12%” with NGF (10^−7 M) and “NGF 18%” with NGF (10^−9 M). In the experiment on VEGF, the “VEGF secretion, percent increase relative to untreated control” value was “VEGF 9%”. Further, the results for the “HGF secretion, percent increase relative to untreated control” value with HGF [2] (10^−7 M) and with HGF [2] (10^−9 M) were “HGF 188%” and “HGF 95%”, respectively.
